Values of other authors as cited in patent US12295958B2, “Ready-to-use injectable formulations” (Zoetis Services LLC, priority 2019, dated 2025).
Structures can show the parent of a compound that is named as a salt. Where two headings read alike, the source gives them in different places.

Key:
S. canis = details: dogs, single injection, S. canis infections
S. intermedius = details: dogs, single injection, S. intermedius infections
[1] = clinical studies
Pasteurella multocide = details: cats, single injection, Pasteurella multocide infections

caking after transport (0.15% Tween and ethyl oleate, glass bottles, transported by road (about 2 hours) and air (about 1 hour))	caking (PVP K30 in addition with 0.5% Tween 80)	caking (addition of 0.5% Tween)	caking (addition of 0.5% polyethylene glycol-12-oleate)	resuspendability (ethyl oleate, 0.15% Tween 80 as flocculating agent)	dispersability of sediment (increasing concentrations of phospholipids (Lipoid S100), suspensions containing PEG-12-oleate)	caking on vibration (long chain fatty acid mixture with addition of phospholipid)	redispersion after vibration (suspension in mixture of long chain saturated and unsaturated fatty acids)	redispersion after vibration (suspensions in Miglyol 840 and Miglyol 812)	Compound	time therapeutic drug concentrations are maintained (S. canis)	time therapeutic drug concentrations are maintained (S. intermedius)	clinical equivalence of a single injection [1]	time therapeutic dose concentrations are provided (Pasteurella multocide)	resuspendability (ethyl oleate suspension without Tween 80)
–	–	–	–	–	–	–	–	–	CO/N=C(\C(=O)N[C@@H]1C(=O)N2C(C(=O)O)=C([C@@H]3CCCO3)CS[C@H]12)c1csc(N)n1 [Convenia, (6R,7R)-7-[[(2Z)-(2-amino-4-thiazolyl)(methoxyimino)acetyl]amino]-8-oxo-3-[(2S)-tetrahydro-2-furanyl]-5-thia-1-azabicyclo[4.2.0]oct-2-ene-2-carboxylic acid, monosodium salt]	about 14 days	approximately 7 days	clinically equivalent to a 14-day oral antibiotic regimen	approximately 7 days	–
“rock solid” cake	did not solve the caking problem	hard cake	prevented caking	good resuspendability	less dispersable sediments	caking on vibration	dispersed readily	difficult to redisperse after vibration	CCN(CC)CCOC(=O)[C@@H]1N2C(=O)[C@@H](NC(=O)Cc3ccccc3)[C@H]2SC1(C)C [penethamate]	–	–	–	–	required vigorous shaking and vortexing to disperse the cake
